Assay results reported in patent US20200093744A1, “POLYMER CONSTRUCTS FOR CONTROLLED RELEASE OF GUEST AGENTS” (CASE WESTERN RESERVE UNIVERSITY, priority 2017, published 2020).

Experiment: Thermal stability by TGA and comparative UV-Vis before and after heating up to 220° C.
Format: physicochemical
Description: Thermal transitions of polymer films were obtained using DSC (TA instruments Q100) at a heating rate of 10° C./min over a temperature range of about −80 to 200° C. The thermal properties of the polymers were measured by thermogravimetric analysis (TGA) on a TA Instruments, […]. The samples were heated up to 220° C. at a heating rate of 15° C./min under a dry nitrogen atmosphere (flow rate: 70 mL/min) on a TA Instruments 2950 thermogravimetric analyzer. X-ray diffraction (XRD) measurements were conducted via a Rigaku diffractometer in transmission mode with Cu Kα X-rays (λ=0.154 nm) operating at 40 kV and 40 mA. The experiment was carried out at 25° C. with a scan speed of 0.5°/min over a scan range of 5° to 40°.
The thermal property of the polymer-guest system was also investigated by the TGA to ensure system stability during the high temperature layer multiplying coextrusion process. […] A viscosity-match temperature of layer multiplying co-extrusion was determined by a melt flow indexer (MFI) at a low shear rate as shown in FIG. 5. A 60/40 feed ratio of PEO100K/PEO200K in layer B was obtained with the processing temperature of 200° C. selected based on material rheological compatibility. The ABAB-type layer multiplication process was conducted accordingly with PE as the protective surface layer and the technique described herein used to form the multilayer film.

- conjugation structure of MO after heating (comparative UV-Vis): remained intact
Structure (SMILES): CN(C)c1ccc(N=Nc2ccc(S(=O)(=O)[O-])cc2)cc1.[Na+] [MO, methyl orange]
